Measured values from patent publication EP2077855B1, “THERAPEUTIC USE OF GBA2” (Yildiz, Dr. med., Yildiz, priority 2006, dated 2008).
“And” between values parts separate entries of the source, which are not always exact repeats. Equal values may be shown once.

Assays:
[1] = biological target: T1, human liver microsomal GBA2 activity (Homo sapiens, UniProt Q9HCG7); assay: Glucosidase activity of human liver microsomes upon addition of test compounds; assay type: biochemical; parameters: enzyme activity: unit not given here; details: human liver microsomes diluted 1:8 with Chaps, incubation time 15; for mean value: mean counts
T1 construct: from tissue; host or cells: human liver microsomes
T1 sequence (Q9HCG7 1-927): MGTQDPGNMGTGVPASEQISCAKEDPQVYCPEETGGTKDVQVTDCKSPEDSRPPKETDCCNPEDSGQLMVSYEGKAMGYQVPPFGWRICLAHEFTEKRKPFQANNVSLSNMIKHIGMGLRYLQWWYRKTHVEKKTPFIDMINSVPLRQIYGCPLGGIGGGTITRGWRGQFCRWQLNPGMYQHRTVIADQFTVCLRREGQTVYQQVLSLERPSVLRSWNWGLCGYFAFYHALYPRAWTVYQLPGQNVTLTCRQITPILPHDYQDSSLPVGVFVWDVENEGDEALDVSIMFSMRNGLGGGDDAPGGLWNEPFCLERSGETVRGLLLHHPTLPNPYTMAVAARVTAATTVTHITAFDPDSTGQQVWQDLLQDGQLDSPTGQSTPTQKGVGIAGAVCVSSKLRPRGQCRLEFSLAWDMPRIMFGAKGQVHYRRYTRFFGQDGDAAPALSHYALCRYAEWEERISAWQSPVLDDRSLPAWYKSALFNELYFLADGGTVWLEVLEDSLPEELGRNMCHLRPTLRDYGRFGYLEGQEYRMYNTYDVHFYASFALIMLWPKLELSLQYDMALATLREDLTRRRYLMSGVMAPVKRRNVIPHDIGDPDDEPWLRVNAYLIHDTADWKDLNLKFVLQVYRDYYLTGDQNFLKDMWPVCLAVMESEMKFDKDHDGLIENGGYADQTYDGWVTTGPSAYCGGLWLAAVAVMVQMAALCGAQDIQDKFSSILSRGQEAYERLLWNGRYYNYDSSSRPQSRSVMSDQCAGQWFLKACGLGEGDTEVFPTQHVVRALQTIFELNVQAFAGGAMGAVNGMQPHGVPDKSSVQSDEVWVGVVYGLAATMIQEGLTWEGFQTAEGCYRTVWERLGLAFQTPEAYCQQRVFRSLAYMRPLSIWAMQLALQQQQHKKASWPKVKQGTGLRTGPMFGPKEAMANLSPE
Description: (§1) Following the method for measurement of glucosidase activity described in ((Matern, H. et al., J. Biol. Chem. 272:11,261-11,267 (1997), the effect of several test compounds (like bivalent cations and detergents) on the glucosidase activity of recombinant GBA2 produced in insect cells (His-tagged isolated enzyme) and of human liver microsomes was compared. The glucosidase activity of human liver was tested in a microsomal preparation. The tested compounds were: cations including nickel, zinc, cobalt, manganese, calcium, magnesium and barium; detergents including Chaps, Triton X100, taurocholate, Brij58; and phospholipids including lyso-phosphatidylcholine, sphingomyelin, phosphatidylcholine, phosphatidyl-serine, phosphatidylethanolamine and phosphatidylinositol. The enzyme activity results for the recombinant GBA2 were similar or even better than the results for human liver microsomal GBA2 activity. Representative results are summarized in Table 5; the data for the remaining test compounds is not shown. Result: Expression of GBA2 in insect cells leads to recombinant GBA2 whose glucosidase activity is similar to or even higher than the glucosidase activity of human liver microsomes. Table 5: Glucosidase activity of microsomal human liver and GBA2 from insect cells upon addition of sphingomyelin (A, B) and cobalt (C, D). The microsomal preparations were diluted 1:8 with Chaps before use. Measurements were performed in duplicate or triplicate.

[2] = biological target: T2, recombinant GBA2 produced in insect cells (His-tagged isolated enzyme) (Homo sapiens, UniProt Q9HCG7); assay: Glucosidase activity of recombinant GBA2 produced in insect cells upon addition of test compounds; assay type: biochemical; parameters: enzyme activity: unit not given here; details: insect cell produced recombinant GBA2, incubation time 15; for mean value: mean counts
T2 construct: His tag; made in house; host or cells: insect cells
T2 sequence (Q9HCG7 1-927): T1 sequence (Q9HCG7 1-927)
Description: as §1

## [Co+2] [cobalt]
[1]; cobalt 0,01mM
  % of control: 87%
  counts: 180,77 and 193,04 and 191,08
  enzyme activity: 1,0961
  mean value: 188,30
[1]; cobalt 0,05mM
  % of control: 140%
  counts: 223,91 and 223,75 and 225,71
  enzyme activity: 1,7647
  mean value: 224,46
[1]; cobalt 0,001mM
  % of control: 81%
  enzyme activity: 1,0240
  mean value: 84,391
[1]; cobalt 1mM
  % of control: 155%
  counts: 234,69 and 233,72 and 236,26
  enzyme activity: 1,9576
  mean value: 234,89
[1]; cobalt 0,005mM
  % of control: 84%
  counts: 192,98 and 191,68 and 174,52
  enzyme activity: 1,0610
  mean value: 186,39
[1]; cobalt 5mM
  % of control: 163%
  counts: 233,59 and 235,10 and 251,13
  enzyme activity: 2,0510
  mean value: 239,941
[2]; cobalt 0,01mM
  % of control: 93%
  counts: 157,63 and 157,78
  enzyme activity: 0,1288
  mean value: 157,71
[2]; cobalt 0,1mM
  % of control: 115%
  counts: 161,62 and 167,45
  enzyme activity: 0,1604
  mean value: 164,54
[2]; cobalt 0,05mM
  % of control: 117%
  counts: 167,53 and 152,62 and 174,62
  enzyme activity: 0,1622
  mean value: 164,92
[2]; cobalt 0,5mM
  % of control: 273%
  counts: 206,30 and 217,85
  enzyme activity: 0,3802
  mean value: 212,08
[2]; cobalt 1mM
  % of control: 360%
  counts: 237,74 and 260,51 and 216,07
  enzyme activity: 0,5005
  mean value: 238,11
[2]; cobalt 5mM
  % of control: 97%
  counts: 208,68 and 319,94
  enzyme activity: 0,6216
  mean value: 264,31

## sphingomyelin
[1]; sphingomyelin 0,3mM
  mean value: 195,30
  % of control: 68%
  counts: 187,68 and 202,92
  enzyme activity: 1,4089
[1]; sphingomyelin 0,15mM
  mean value: 206,72
  % of control: 78%
  counts: 215,51 and 197,93
  enzyme activity: 1,6200
[1]; sphingomyelin 0,75mM
  mean value: 206,21
  % of control: 78%
  counts: 206,90 and 205,52
  enzyme activity: 1,6106
[1]; sphingomyelin 3mM
  mean value: 214,01
  % of control: 85%
  counts: 225,57 and 202,45
  enzyme activity: 1,7548
[1]; sphingomyelin 6mM
  mean value: 208,40
  % of control: 80%
  counts: 207,54 and 209,26
  enzyme activity: 1,6511
[1]; sphingomyelin 12mM
  mean value: 195,24
  % of control: 68%
  counts: 189,25 and 201,23
  enzyme activity: 1,4077
[1]; sphingomyelin 1,5mM
  mean value: 201,66
  % of control: 74%
  counts: 207,84 and 195,48
  enzyme activity: 1,5264
[2]; sphingomyelin 0,3mM
  mean value: 674,56
  % of control: 104%
  counts: 675,57 and 673,54
  enzyme activity: 2,5788
[2]; sphingomyelin 0,15mM
  mean value: 591,95
  % of control: 89%
  counts: 579,66 and 604,24
  enzyme activity: 2,1969
[2]; sphingomyelin 0,75mM
  mean value: 537,54
  % of control: 79%
  counts: 541,76 and 533,32
  enzyme activity: 1,9454
[2]; sphingomyelin 3mM
  mean value: 652,37
  % of control: 100%
  counts: 699,42 and 605,31
  enzyme activity: 2,4762
[2]; sphingomyelin 6mM
  mean value: 493,49
  % of control: 70%
  counts: 473,49 and 513,48
  enzyme activity: 1,7418
[2]; sphingomyelin 12mM
  mean value: 510,93
  % of control: 74%
  counts: 489,65 and 532,21
  enzyme activity: 1,8224
[2]; sphingomyelin 1,5mM
  mean value: 643,44
  % of control: 98%
  counts: 630,13 and 656,75
  enzyme activity: 2,4349
